The record followed here is the OPERA property sets (Mansouri et al. 2018).

Each structure is given as a SMILES string.

Regarding `CC(=O)C=O`, the boiling point came out at 72 °C and the log10 Henry constant (atm·m³/mol) is -6.57.
As to `CC(C)(C)[C@@H](O)[C@@H](Cc1ccc(Cl)cc1)n1cncn1` (single isomer, unassigned), the log10 Koc (L/kg) is 2.7, the log10 vapour pressure (mmHg) was -8.12 and the melting point was 166 °C.
Turning to `C[Si](Cl)(Cl)C(Cl)Cl`, the boiling point is 149 °C.
`CCC1(c2ccccc2)CCC(=O)NC1=O` (stereo unspecified) yielded a melting point of 84 °C.
Take `Oc1ccc(Cl)cc1Cc1cc(Cl)ccc1O`: the log10 vapour pressure (mmHg) is -10, the melting point was found to be 178 °C and the ready biodegradability result was “not readily biodegradable”.
In the case of `CCCOCC(C)C`, the boiling point was found to be 107 °C.
In the case of `O=CCc1ccccc1`, the boiling point came to 195 °C, the log10 vapour pressure (mmHg) is -0.407 and the melting point came out at 33.5 °C.
As to `CCC(C)(CC)C(=O)O`, the boiling point was 207 °C.
Turning to `CNc1nc(NC(C)C)nc(SC)n1`, the boiling point was 345 °C, the log10 vapour pressure (mmHg) was -6 and the melting point amounted to 85 °C.
The molecule `C=CC(C)(O)CC(C)C` (stereo unspecified) showed a boiling point of 146 °C.
In turn, `CC[N+](CC)(CC)CCOC(=O)C(C1CCCC1)C1CCCC1.[Br-]` gave a melting point of 186 °C.
Take `O=c1c2ccccc2ccc2ccccc12`: the melting point is 88.5 °C.
As to `CC(=O)Br`, the boiling point was 76 °C, the log10 vapour pressure (mmHg) amounted to 2.08 and the melting point is -96 °C.
As for `CC(C)(C#N)N=NC(C)(C)C#N`, the ready biodegradability result is given as “not readily biodegradable”.
Molecule `CCC(C)C(C)O` (stereo unspecified) returned a boiling point of 134 °C.
Take `CCOc1ccc(NC(C)=O)cc1`: the boiling point came out at 244 °C, the log10 Koa came out at 9.59, the log10 vapour pressure (mmHg) is -6.16 and the melting point worked out at 138 °C. The ready biodegradability result is listed as “not readily biodegradable”.
For the molecule `C1CCC(CCCCC2CCCCC2)CC1`, the boiling point worked out at 305 °C and the melting point was determined as 12 °C.
The matching figures for `FC(F)(F)C(F)(F)C(F)(F)C(F)(F)C(F)(F)C(F)(F)OC(F)(F)C(F)(F)C(F)(F)C(F)(F)C(F)(F)C(F)(F)F`: 181 °C and -90 °C.
`CN(C)c1ccc2cc3ccc(N(C)C)cc3nc2c1`: the melting point turned out to be 165 °C.
Consider `Nc1cc(N)nc(N)n1`, for which the melting point came out at 250 °C.
In the case of `CC1(C)OC(=O)CC1CC(=O)O` (stereo unspecified), the melting point was found to be 90 °C.
`CN1C(C(=O)Nc2ccccn2)=C(O)c2ccccc2S1(=O)=O` gave a melting point of 199 °C.
On the same count and under the same terms, then `CC(=O)c1ccc(O)c(O)c1O`, with 173 °C; and `O=[N+]([O-])c1ccc2[nH]nnc2c1`, with 217 °C.
For `COc1cccc2ccccc12`, the boiling point worked out at 269 °C and the ready biodegradability result is listed as “not readily biodegradable”.
Molecule `OC[C@]1(O)OC[C@@H](O)[C@H](O)[C@@H]1O` had a melting point of 134 °C.
Same read-out and setting: then `OC(C1=CC(=C(c2ccccn2)c2ccccn2)C=C1)(c1ccccn1)c1ccccn1`, with 147 °C; and `COc1cc(C(=O)OCCCN(C)CCN(C)CCCOC(=O)c2cc(OC)c(OC)c(OC)c2)cc(OC)c1OC`, with 76 °C.
For `CCCCC(CC)COC(C)=O` (stereo unspecified), the boiling point amounted to 199 °C, the log10 vapour pressure (mmHg) is -0.638 and the melting point is -80 °C.
`CC(C)=CCOc1c2occc2cc2ccc(=O)oc12` had a melting point of 102 °C.
`ON=Cc1ccccc1O` returned a melting point of 57 °C.
On the same count and under the same terms, with `C=Cc1ccc2ccccc2c1` the figure was 66 °C.
As to `CCCCCCC(=O)OC`, the boiling point came to 174 °C and the melting point was -56 °C.
For `Cc1ccc(N=C=O)cc1N=C=O`, the boiling point was determined as 251 °C, the log10 vapour pressure (mmHg) was -2.1, the melting point turned out to be 20.5 °C and the ready biodegradability result is on record as “not readily biodegradable”.
In the case of `O=C(OOC(=O)c1ccc(Cl)cc1Cl)c1ccc(Cl)cc1Cl`, the melting point was 106 °C and the ready biodegradability result is on record as “not readily biodegradable”.
Regarding `OCCCC(F)(F)F`, the boiling point was 125 °C.
Consider `CCCCCCCCCCCCCCCCCCCCCCCCCCCC`, for which the boiling point worked out at 432 °C, the log10 biodegradation half-life (days) stood at 2.1, the log10 vapour pressure (mmHg) is -8.8 and the melting point was determined as 64.5 °C. The ready biodegradability entry was “readily biodegradable”.
Consider `FC(F)(F)C(=NOCC1OCCO1)c1ccc(Cl)cc1`, for which the log10 vapour pressure (mmHg) was -3.55.
The same measure, in the same setting: then `Clc1cc(Cl)cc(Oc2ccccc2)c1`, with -3.
`Oc1nc(O)c2nccnc2n1` returned a melting point of 348 °C.
For `ClCCCCCCCCCl`, the boiling point was determined as 241 °C and the ready biodegradability result was “not readily biodegradable”.
Consider `FC(Cl)C(F)Cl` (stereo unspecified), for which the boiling point was 46.8 °C.
`O=C(Nc1ccccc1)c1ccccc1`: the melting point stood at 163 °C.
Turning to `CC=C(CC)C(=O)NC(N)=O`, the melting point was 198 °C.
For `CC(C)NC(=N)NC(=N)Nc1ccc(Cl)cc1`, the melting point worked out at 129 °C.
As for `CC1CC(C)CC(O)C1` (stereo unspecified), the boiling point was found to be 187 °C and the melting point was 11.6 °C.
Take `O=C1CCCC1C1CCCC1` (stereo unspecified): the boiling point was 232 °C and the melting point was -13 °C.
In turn, `CCOP(=S)(OCC)SCS(=O)(=O)C(C)(C)C` came in with a log10 Koc (L/kg) of 2.18.
The molecule `COc1cccc(OC)c1C#N` showed a boiling point of 310 °C and a melting point of 119 °C.
Turning to `CC(C)CCCCCOC(=O)C(C)Oc1ccc(Cl)cc1Cl` (stereo unspecified), the log10 vapour pressure (mmHg) is -5.47 and the melting point is -37 °C.
`C=C(C)Cl`: the boiling point came to 22.6 °C, the log10 vapour pressure (mmHg) came out at 2.91 and the melting point was -137 °C.
For the molecule `CCSCC`, the boiling point was 92.1 °C, the log10 Henry constant (atm·m³/mol) was -2.77, the log10 vapour pressure (mmHg) was found to be 1.78 and the melting point is -104 °C.
